The record followed here is US20250034167A1, “HETEROCYCLIC COMPOUNDS AND METHODS OF USE” (AMGEN INC., priority 2021, published 2025).

In this experiment the target is His-tagged KRAS G12D protein (Homo sapiens, UniProt P01116, G12D). The experiment is described as follows: biochemical.

Structures are written as SMILES. pIC50: −log10 of the molar value.

His-tagged KRAS G12D protein, sequence (P01116 1-188 isoform P01116-2 G12D): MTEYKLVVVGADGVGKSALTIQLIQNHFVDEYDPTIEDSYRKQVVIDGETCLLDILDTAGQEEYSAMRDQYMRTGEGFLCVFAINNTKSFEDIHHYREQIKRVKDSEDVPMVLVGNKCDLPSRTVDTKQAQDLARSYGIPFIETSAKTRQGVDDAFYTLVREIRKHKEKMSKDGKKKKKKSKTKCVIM
Experimental: The plate was incubated for 30 minutes at room temperature. Biotinylated KRPep-2d substrate (Amgen) was diluted to nM in Assay Buffer and 2 μL was added to all wells and incubated for 1 hour at room temperature. Detection Reagent (0.4 nM LANCE Eu-W1024 Anti-6×His (Perkin Elmer AD0401), 5 nM streptavidin-d2 (Cisbio 610SADLA)) was prepared in Assay Buffer, then 4 µL was added to the plate and incubated for 1 hour at room temperature.

Regarding `CCc1c(F)ccc2cc(O)cc(-c3ncc4c(N5C[C@H]6OCC[C@H]65)nc(OC[C@@]56CCCN5C[C@H](F)C6)nc4c3F)c12` (relative stereo) [Example 21, rel-4-(4-((1R,5R)-2-Oxa-6-azabicyclo[3.2.0]heptan-6-yl)-8-fluoro-2-(((2R,7aS)-2-fluorotetrahydro-1H-pyrrolizin-7a(5H)-yl)methoxy)pyrido[4,3-d]pyrimidin-7-yl)-5-ethyl-6-fluoronaphthalen-2-ol], the pIC50 was 7.49.

The molecule `CCc1c(F)ccc2cc(O)cc(-c3ncc4c(N5CC6CNC(=O)C6C5)nc(OC[C@@]56CCCN5C[C@H](F)C6)nc4c3F)c12` (relative stereo) [Example 61, rel-(3aR,6aS)-5-(7-(8-Ethyl-7-fluoro-3-hydroxynaphthalen-1-yl)-8-fluoro-2-(((2R,7aS)-2-fluorotetrahydro-1H-pyrrolizin-7a(5H)-yl)methoxy)pyrido[4,3-d]pyrimidin-4-yl)hexahydropyrrolo[3,4-c]pyrrol-1(2H)-one] had a pIC50 of 8.30.

Molecule `CCc1c(F)ccc2cc(O)cc(-c3ncc4c(N5CCC6OCCC6C5)nc(OC[C@@]56CCCN5C[C@H](F)C6)nc4c3F)c12` (relative stereo) [Example 62, 5-Ethyl-6-fluoro-4-(8-fluoro-2-(((2R,7aS)-2-fluorotetrahydro-1H-pyrrolizin-7a(5H)-yl)methoxy)-4-rel-((3aR,7aS)-hexahydrofuro[3,2-c]pyridin-5(4H)-yl)pyrido[4,3-d]pyrimidin-7-yl)naphthalen-2-ol] had a pIC50 of 7.40.

`CCc1c(F)ccc2cc(O)cc(-c3ncc4c(N5CCC[C@H]6NC(=O)C[C@H]65)nc(OC[C@@]56CCCN5C[C@H](F)C6)nc4c3F)c12` (relative stereo) [Example 63, rel-(3aR,7aR)-4-(7-(8-Ethyl-7-fluoro-3-hydroxynaphthalen-1-yl)-8-fluoro-2-(((2R,7aS)-2-fluorotetrahydro-1H-pyrrolizin-7a(5H)-yl)methoxy)pyrido[4,3-d]pyrimidin-4-yl)octahydro-2H-pyrrolo[3,2-b]pyridin-2-one]: the pIC50 is 7.41.

In the case of `CCc1c(F)ccc2cc(O)cc(-c3ncc4c(N5C[C@@H](C(N)=O)CC[C@H]5C)nc(OC[C@@]56CCCN5C[C@H](F)C6)nc4c3F)c12` (relative stereo) [Example 64, rel-(3S,6R)-1-(7-(8-Ethyl-7-fluoro-3-hydroxynaphthalen-1-yl)-8-fluoro-2-(((2R,7aS)-2-fluorotetrahydro-1H-pyrrolizin-7a(5H)-yl)methoxy)pyrido[4,3-d]pyrimidin-4-yl)-6-methylpiperidine-3-carboxamide], the pIC50 was 8.22.

Turning to `CCc1c(F)ccc2cc(O)cc(-c3ncc4c(N5CC[C@H]6CNC(=O)[C@H]6C5)nc(OC[C@@]56CCCN5C[C@H](F)C6)nc4c3F)c12` (relative stereo) [Example 103, rel-(3aR,7aR)-5-(7-(8-Ethyl-7-fluoro-3-hydroxynaphthalen-1-yl)-8-fluoro-2-(((2R,7aS)-2-fluorotetrahydro-1H-pyrrolizin-7a(5H)-yl)methoxy)pyrido[4,3-d]pyrimidin-4-yl)octahydro-3H-pyrrolo[3,4-c]pyridin-3-one], the pIC50 was 8.40.

Turning to `CCc1c(F)ccc2cc(O)cc(-c3ncc4c(N5CC6CCC(C(N)=O)(C6)C5)nc(OC[C@@]56CCCN5C[C@H](F)C6)nc4c3F)c12` (relative stereo) [Example 121, 3-(7-(8-Ethyl-7-fluoro-3-hydroxynaphthalen-1-yl)-8-fluoro-2-(((2R,7aS)-2-fluorotetrahydro-1H-pyrrolizin-7a(5H)-yl)methoxy)pyrido[4,3-d]pyrimidin-4-yl)-3-azabicyclo[3.2.1]octane-1-carboxamide], the pIC50 was 8.22.

In the case of `CCc1c(F)ccc2cc(O)cc(-c3ncc4c(N5C6CCC(C(N)=O)C5CC6)nc(OC[C@@]56CCCN5C[C@H](F)C6)nc4c3F)c12` (relative stereo) [Example 123, rac-(15,5S)-8-(7-(8-Ethyl-7-fluoro-3-hydroxynaphthalen-1-yl)-8-fluoro-2-(((2R,7aS)-2-fluorotetrahydro-1H-pyrrolizin-7a(5H)-yl)methoxy)pyrido[4,3-d]pyrimidin-4-yl)-8-azabicyclo[3.2.1]octane-2-carboxamide], the pIC50 was 7.33.

In turn, `CCc1c(F)ccc2cc(O)cc(-c3ncc4c(N5CC6CC(O)C(C6)C5)nc(OC[C@@]56CCCN5C[C@H](F)C6)nc4c3F)c12` (single isomer, unassigned) [Example 25] showed a pIC50 of 7.96.

On to `CCc1c(F)ccc2cc(O)cc(-c3ncc4c(N5CC6CC(O)C(C6)C5)nc(OC[C@@]56CCCN5C[C@H](F)C6)nc4c3F)c12` (single isomer, unassigned) [Example 26], for which the pIC50 is 8.40.

For `CCC1CCCc2cc(O)cc(-c3ncc4c(N5CCC[C@@](C)(O)C5)nc(OC[C@@]56CCCN5C[C@H](F)C6)nc4c3F)c21` (single isomer, unassigned) [Example 174], the pIC50 was 6.47.

As for `CCc1c(F)ccc2cc(O)cc(-c3ncc4c(N5CC6CC5CCC6O)nc(OCC56CCCN5C[C@H](F)C6)nc4c3F)c12` (stereo in doubt) [Example 155, 6-(7-(8-Ethyl-7-fluoro-3-hydroxy-naphthalen-1-yl)-8-fluoro-2-(((2R,7aS)-2-fluorotetrahydro-1H-pyrrolizin-7a(5H)-yl)methoxy)pyrido[4,3-d]pyrimidin-4-yl)-6-azabicyclo[3.2.1] octan-2-ol], the pIC50 was 7.48.

Molecule `CCc1c(F)ccc2cc(O)cc(-c3ncc4c(N5CCC5C(N)=O)nc(OC[C@@]56CCCN5C[C@H](F)C6)nc4c3F)c12` (stereo partly drawn) [Example 5, 1-(7-(8-Ethyl-7-fluoro-3-hydroxynaphthalen-1-yl)-8-fluoro-2-(((2R,7aS)-2-fluorotetrahydro-1H-pyrrolizin-7a(5H)-yl)methoxy)pyrido[4,3-d]pyrimidin-4-yl)azetidine-2-carboxamide] showed a pIC50 of 7.72.

`CCc1c(F)ccc2cc(O)cc(-c3ncc4c(N5C[C@@H]6COC[C@@H]65)nc(OC[C@@]56CCCN5C[C@H](F)C6)nc4c3F)c12` [Example 20, 4-(4-((1S,5R)-3-Oxa-6-azabicyclo[3.2.0]heptan-6-yl)-8-fluoro-2-(((2R,7aS)-2-fluorotetrahydro-1H-pyrrolizin-7a(5H)-yl)methoxy)pyrido[4,3-d]pyrimidin-7-yl)-5-ethyl-6-fluoronaphthalen-2-ol] showed a pIC50 of 7.41.

For `CCc1c(F)ccc2cc(O)cc(-c3ncc4c(N5CC(O)CC(C)(C)C5)nc(OC[C@@]56CCCN5C[C@H](F)C6)nc4c3F)c12` (some centres unmarked) [Example 32], the pIC50 was 8.05.

Turning to `CCc1c(F)ccc2cc(O)cc(-c3ncc4c(N5C6CCC(O)C5CC6)nc(OC[C@@]56CCCN5C[C@H](F)C6)nc4c3F)c12` (stereo partly drawn) [Example 34, 8-(7-(8-Ethyl-7-fluoro-3-hydroxynaphthalen-1-yl)-8-fluoro-2-(((2R,7aS)-2-fluorotetrahydro-1H-pyrrolizin-7a(5H)-yl)methoxy)pyrido[4,3-d]pyrimidin-4-yl)-8-azabicyclo[3.2.1]octan-2-ol 2,2,2-trifluoroacetate], the pIC50 is 7.27.

Consider `CCc1c(F)ccc2cc(O)cc(-c3ncc4c(N5CC[C@H](C)[C@@H](O)C5)nc(OC[C@@]56CCCN5C[C@H](F)C6)nc4c3F)c12` [Example 35, (3R,4S)-1-(7-(8-Ethyl-7-fluoro-3-hydroxynaphthalen-1-yl)-8-fluoro-2-(((2R,7aS)-2-fluorotetrahydro-1H-pyrrolizin-7a(5H)-yl)methoxy)pyrido[4,3-d]pyrimidin-4-yl)-4-methyl-piperidin-3-ol], for which the pIC50 was 7.60.

In the case of `CCc1c(F)ccc2cc(O)cc(-c3ncc4c(N5CC6CCOC6C5)nc(OC[C@@]56CCCN5C[C@H](F)C6)nc4c3F)c12` (stereo partly drawn) [Example 37, 5-Ethyl-6-fluoro-4-(8-fluoro-2-(((2R,7aS)-2-fluorotetrahydro-1H-pyrrolizin-7a(5H)-yl)methoxy)-4-(hexahydro-5H-furo[2,3-c]pyrrol-5-yl)pyrido[4,3-d]pyrimidin-7-yl)naphthalen-2-ol], the pIC50 is 7.38.

With `CCc1c(F)ccc2cc(O)cc(-c3ncc4c(N5CC(C(N)=O)CC(C)(C)C5)nc(OC[C@@]56CCCN5C[C@H](F)C6)nc4c3F)c12` (stereo partly drawn) [Example 43, 1-(7-(8-Ethyl-7-fluoro-3-hydroxynaphthalen-1-yl)-8-fluoro-2-(((2R,7aS)-2-fluorotetrahydro-1H-pyrrolizin-7a(5H)-yl)methoxy)pyrido[4,3-d]pyrimidin-4-yl)-5,5-dimethylpiperidine-3-carboxamide], the pIC50 was 8.40.

Consider `C#Cc1c(F)ccc2cccc(-c3ncc4c(N5CCC[C@@](C)(O)C5)nc(OC[C@@]56CCCN5C[C@H](F)C6)nc4c3F)c12` [Example 50, (R)-1-(7-(8-Ethynyl-7-fluoronaphthalen-1-yl)-8-fluoro-2-(((2R,7aS)-2-fluorotetrahydro-1H-pyrrolizin-7a(5H)-yl)methoxy)pyrido[4,3-d]pyrimidin-4-yl)-3-methylpiperidin-3-ol], for which the negative-log IC50 (pIC50) was 8.10.

As for `CCc1c(F)ccc2cc(O)cc(-c3ncc4c(N5CC6CC(O)C5C6)nc(OC[C@@]56CCCN5C[C@H](F)C6)nc4c3F)c12` (stereo partly drawn) [Example 51, 2-(7-(8-Ethyl-7-fluoro-3-hydroxynaphthalen-1-yl)-8-fluoro-2-(((2R,7aS)-2-fluorotetrahydro-1H-pyrrolizin-7a(5H)-yl)methoxy)pyrido[4,3-d]pyrimidin-4-yl)-2-azabicyclo[2.2.1]heptan-6-ol], the pIC50 is 7.60.

In turn, `CCc1cccc2cc(O)cc(-c3ncc4c(N5C6CCC5C(C)(O)CC6)nc(OC[C@@]56CCCN5C[C@H](F)C6)nc4c3F)c12` (stereo partly drawn) [Example 69, 8-(7-(8-Ethyl-3-hydroxynaphthalen-1-yl)-8-fluoro-2-(((2R,7aS)-2-fluorotetrahydro-1H-pyrrolizin-7a(5H)-yl)methoxy)pyrido[4,3-d]pyrimidin-4-yl)-2-methyl-8-azabicyclo[3.2.1]octan-2-ol] gave a pIC50 of 7.44.

`CCc1c(F)ccc2cc(O)cc(-c3ncc4c(N5C6CCC5C(C)(O)CC6)nc(OC[C@@]56CCCN5C[C@H](F)C6)nc4c3F)c12` (stereo partly drawn) [Example 70, 8-(7-(8-Ethyl-7-fluoro-3-hydroxynaphthalen-1-yl)-8-fluoro-2-(((2R,7aS)-2-fluorotetrahydro-1H-pyrrolizin-7a(5H)-yl)methoxy)pyrido[4,3-d]pyrimidin-4-yl)-2-methyl-8-azabicyclo[3.2.1]octan-2-ol]: the pIC50 is 7.49.
